For experiment [1], the system named is HePG2 liver cancer cell line. Description: MTT cytotoxicity assay, HePG2. Format: cell-based. Conditions: Homo sapiens, HepG2, read-out: In vitro cytotoxicity IC50, HePG2. A general note: Tetrazolium assays rely on reduction of a dye to a coloured formazan, in cell work by metabolically active cells.
The subject of experiment [2] is HePG-2, HCT-116, and MCF-7 cell lines. Description: MTT cytotoxicity, range over the three cell lines. Format: cell-based. Particulars: 144 h, read-out: IC50 values ranging over HePG-2, HCT-116, and MCF-7 cell lines.
Experiment [3] concerns the target EGFR TK (Homo sapiens, UniProt P00533). Description: EGFR kinase inhibition assay. Format: biochemical.
The target in experiment [4] is CDK-2 (Homo sapiens, UniProt P24941). Description: CDK-2 kinase inhibition assay. Format: biochemical.
Experiment [5] concerns P-gp in HepG-2/ADR cells. The experiment is described as follows: Quantitative real-time PCR for P-glycoprotein. Particulars: 72 h, control HepG2 = 1. Format: cell-based, human. In general terms: Quantitative PCR measures a nucleic acid by following its amplification.
Experiment [6] concerns HCT-116 cells. The experiment is described as follows: Cell cycle analysis by flow cytometry. Format: cell-based. Conditions: HCT-116, 6o at IC50 (5.84 μM); control 42.94%.
For experiment [7], the system named is HCT-116 cells. Description: Annexin V-FITC/PI apoptosis assay. Format: cell-based. Particulars: HCT-116, 6o at IC50.
The subject of experiment [8] is MCF-7 breast cancer cell line. Description: MTT cytotoxicity assay, MCF-7. Conditions: Homo sapiens, MCF7, read-out: In vitro cytotoxicity IC50, MCF-7.
The test system of experiment [9] is HCT-116 colon cancer cell line. The experiment is described as follows: MTT cytotoxicity assay, HCT-116. Conditions: Homo sapiens, HCT-116, read-out: In vitro cytotoxicity IC50, HCT-116.
Experiment [10] has as its system A549 lung cancer cell lines. Conditions: cited from earlier work.
Experiment [11] relates to leukemia L1210 cells. Conditions: read-out: IC50 against leukemia L1210 cells; cited from earlier work.
Experiment [12] has as its system breast cancer cell line (MCF-7). Particulars: read-out: IC50 on breast cancer cell line (MCF-7); cited from earlier work.

Structures are written as SMILES. Like-named read-outs stand apart in the source and are kept apart here.

One may read the IC50 as the concentration needed to halve the response being measured.

Chain of EGFR TK (P00533 25-1210): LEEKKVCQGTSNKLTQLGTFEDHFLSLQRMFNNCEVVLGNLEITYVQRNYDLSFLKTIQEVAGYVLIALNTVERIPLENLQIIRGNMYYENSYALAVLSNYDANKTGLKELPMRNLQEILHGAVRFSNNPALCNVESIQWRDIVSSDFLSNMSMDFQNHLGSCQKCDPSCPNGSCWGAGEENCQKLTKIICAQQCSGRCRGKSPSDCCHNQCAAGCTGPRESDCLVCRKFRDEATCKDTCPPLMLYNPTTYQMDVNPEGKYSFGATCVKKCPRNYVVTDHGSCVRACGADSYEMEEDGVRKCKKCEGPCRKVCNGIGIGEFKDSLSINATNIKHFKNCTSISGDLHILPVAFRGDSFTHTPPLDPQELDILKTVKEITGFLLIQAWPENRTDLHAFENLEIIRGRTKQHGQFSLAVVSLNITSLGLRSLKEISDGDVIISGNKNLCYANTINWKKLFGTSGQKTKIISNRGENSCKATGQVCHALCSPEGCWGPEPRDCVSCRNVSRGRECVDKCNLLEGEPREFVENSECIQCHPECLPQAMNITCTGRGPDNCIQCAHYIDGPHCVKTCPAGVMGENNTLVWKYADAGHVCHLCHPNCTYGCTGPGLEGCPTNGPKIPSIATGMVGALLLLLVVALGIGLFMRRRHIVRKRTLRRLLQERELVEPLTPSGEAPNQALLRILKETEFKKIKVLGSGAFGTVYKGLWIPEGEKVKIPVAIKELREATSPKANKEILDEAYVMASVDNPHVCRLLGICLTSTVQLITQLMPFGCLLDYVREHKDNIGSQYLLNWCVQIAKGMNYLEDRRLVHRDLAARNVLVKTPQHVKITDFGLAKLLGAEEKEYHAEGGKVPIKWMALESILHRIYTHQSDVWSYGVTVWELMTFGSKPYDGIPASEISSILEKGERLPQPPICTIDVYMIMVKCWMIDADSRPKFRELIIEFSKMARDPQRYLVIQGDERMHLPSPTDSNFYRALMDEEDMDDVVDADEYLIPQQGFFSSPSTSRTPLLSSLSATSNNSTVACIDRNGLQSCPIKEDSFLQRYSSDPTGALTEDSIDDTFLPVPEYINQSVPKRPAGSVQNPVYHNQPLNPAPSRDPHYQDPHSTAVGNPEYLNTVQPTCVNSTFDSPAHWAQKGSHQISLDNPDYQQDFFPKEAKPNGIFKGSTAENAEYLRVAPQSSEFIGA

With `N#Cc1c(N2C(=O)c3ccc(F)cc3C2=O)c(C(=O)Nc2ccc(F)cc2)n2c1CCCC2` [Compound 6o, 1-Cyano-2-(5-fluoro-1,3-dioxoisoindolin-2-yl)-N-(4-fluorophenyl)-5,6,7,8-tetrahydroindolizine-3-carboxamide], the IC50 was 6.02 ± 0.3 µM in experiment [1]; 6.02 to 13.9 µM in experiment [2]; 0.062 ± 0.003 µM in experiment [3]; 0.118 ± 0.016 µM in [4]; 8.89 ± 0.5 µM in experiment [8]; 5.84 ± 0.2 µM in [9]. Further, in experiment [5], the “P-gp RT-PCR fold change” value is 0.2732 fold. Further, the “Cells in G1 phase” value in experiment [6] is 48.75%. Besides, the Late cellular apoptosis in experiment [7] (DMSO control 0.16%, upper right quadrant) turned out to be 26.51%. Moreover, the Early cellular apoptosis in [7] (DMSO control 0.52%, lower right quadrant) is given as 15.16%. The compound further showed a Total cellular apoptosis in experiment [7] (DMSO control 2.61%) of 49.16%.

`COc1cccc2c1C(=O)c1c(O)c3c(c(O)c1C2=O)C[C@@](O)(C(=O)CO)C[C@@H]3O[C@H]1C[C@H](N)[C@H](O)[C@H](C)O1` [DOX, Doxorubicin, reference compound]: in experiment [1], the half-maximal inhibitory concentration (IC50) came out at 4.5 ± 0.2 µM.

For the compound `N#Cc1c(N2C(=O)c3ccc(F)cc3C2=O)c(C(=O)Nc2ccccc2)n2c1CCCC2` [Compound 6k, 1-Cyano-2-(5-fluoro-1,3-dioxoisoindolin-2-yl)-N-phenyl-5,6,7,8-tetrahydroindolizine-3-carboxamide], the IC50 was determined as 78.2 ± 3.8 µM in experiment [1], 80.6 ± 4.1 µM in experiment [8] and 83.7 ± 4 µM in experiment [9].

`COc1ccc(NC(=O)c2c(N3C(=O)c4ccc(F)cc4C3=O)c(C#N)c3n2CCCC3)cc1` [Compound 6q, 1-Cyano-2-(5-fluoro-1,3-dioxoisoindolin-2-yl)-N-(4-methoxyphenyl)-5,6,7,8-tetrahydroindolizine-3-carboxamide]: the values for the half-inhibitory concentration (IC50) in experiment [1], in [8] and in [9] were 41.2 ± 2.3 µM, 37.4 ± 2.6 µM and 32.2 ± 2.2 µM, respectively.

`N#Cc1c(N2C(=O)c3ccc(F)cc3C2=O)c(C(=O)Nc2ccc(Cl)cc2)n2c1CCC2` [Compound 6g, N-(4-Chlorophenyl)-7-cyano-6-(5-fluoro-1,3-dioxoisoindolin-2-yl)-2,3-dihydro-1H-pyrrolizine-5-carboxamide]: the IC50 was determined as 52 ± 2.8 µM in experiment [1], 69.4 ± 3.7 µM in [8] and 60.2 ± 3.3 µM in experiment [9].

For the compound `Cc1ccc(NC(=O)c2c(N3C(=O)c4ccc(F)cc4C3=O)c(C#N)c3n2CCC3)cc1` [Compound 6b, 7-Cyano-6-(5-fluoro-1,3-dioxoisoindolin-2-yl)-N-(p-tolyl)-2,3-dihydro-1H-pyrrolizine-5-carboxamide], the results for the IC50 in [1], in [8] and in experiment [9] were 55.4 ± 3.2 µM, 58.1 ± 3.3 µM and 66.3 ± 3.1 µM, respectively.

For `Cc1ccc(NC(=O)c2c(N3C(=O)c4ccc(F)cc4C3=O)c(C#N)c3n2CCCC3)cc1` [Compound 6m, 1-Cyano-2-(5-fluoro-1,3-dioxoisoindolin-2-yl)-N-(p-tolyl)-5,6,7,8-tetrahydroindolizine-3-carboxamide], the IC50 in experiment [1] stood at 12 ± 0.8 µM; in experiment [3], 0.13 ± 0.011 µM; in experiment [4], 0.402 ± 0.086 µM; in experiment [8] it was 19.9 ± 1.4 µM; in experiment [9], 28.4 ± 1.9 µM. For the same compound, the “P-gp RT-PCR fold change” value in experiment [5] is given as 0.6754 fold.

Take `COc1ccc(NC(=O)c2c(N3C(=O)c4ccccc4C3=O)c(C#N)c3n2CCCC3)cc1` [Compound 6p, 1-Cyano-2-(1,3-dioxoisoindolin-2-yl)-N-(4-methoxyphenyl)-5,6,7,8-tetrahydroindolizine-3-carboxamide]: the figures for the IC50 in experiment [1], in experiment [8] and in experiment [9] were 73.3 ± 3.9 µM, 86.9 ± 4.3 µM and 79.6 ± 3.7 µM, respectively.

As for `N#Cc1c(N2C(=O)c3ccccc3C2=O)c(C(=O)Nc2ccc(Br)cc2)n2c1CCC2` [Compound 6h, N-(4-Bromophenyl)-7-cyano-6-(1,3-dioxoisoindolin-2-yl)-2,3-dihydro-1H-pyrrolizine-5-carboxamide], the values for the IC50 in experiment [1], in [8] and in experiment [9] were 91.4 ± 4.8 µM, > 100 µM and > 100 µM, respectively.

On to `N#Cc1c(N2C(=O)c3ccc(F)cc3C2=O)c(C(=O)Nc2ccccc2)n2c1CCC2` [Compound 6a, 7-Cyano-6-(5-fluoro-1,3-dioxoisoindolin-2-yl)-N-phenyl-2,3-dihydro-1H-pyrrolizine-5-carboxamide], for which the IC50 is 85.1 ± 4.1 µM in [1], 93.5 ± 4.7 µM in experiment [8] and > 100 µM in experiment [9].

`N#Cc1c(N2C(=O)c3ccc(F)cc3C2=O)c(C(=O)Nc2ccc(F)cc2)n2c1CCC2` [Compound 6d, 7-Cyano-6-(5-fluoro-1,3-dioxoisoindolin-2-yl)-N-(4-fluorophenyl)-2,3-dihydro-1H-pyrrolizine-5-carboxamide]: the concentration for half-maximal inhibition (IC50) in experiment [1] was 7.97 ± 0.5 µM; in experiment [2], 6.02 to 13.9 µM; in experiment [3], 0.362 ± 0.008 µM; in experiment [8], 13.9 ± 0.9 µM; in experiment [9], 9.49 ± 0.6 µM. Also, in [5], the “P-gp RT-PCR fold change” value is 0.4097 fold.

Turning to `O=c1[nH]cc(F)c(=O)[nH]1` [5-fluorouracil], the half-inhibitory concentration (IC50) in experiment [10] (read-out: IC50 against A549 lung cancer cell lines) is < 5 µM.

`COc1ccc(NC(=O)c2c(N3C(=O)c4ccccc4C3=O)c(C#N)c3n2CCC3)cc1` [Compound 6e, 7-Cyano-6-(1,3-dioxoisoindolin-2-yl)-N-(4-methoxyphenyl)-2,3-dihydro-1H-pyrrolizine-5-carboxamide]: the concentration for half-maximal inhibition (IC50) in [1] is 45.4 ± 2.5 µM; in experiment [8] it was 42.7 ± 2.5 µM; in [9], 38.1 ± 2.4 µM.

Turning to `N#Cc1c(N2C(=O)c3ccccc3C2=O)c(C(=O)Nc2ccc(F)cc2)n2c1CCC2` [Compound 6c, 7-Cyano-6-(1,3-dioxoisoindolin-2-yl)-N-(4-fluorophenyl)-2,3-dihydro-1H-pyrrolizine-5-carboxamide], the results for the 50% inhibitory concentration (IC50) in [1], in [8] and in experiment [9] were 49.1 ± 2.9 µM, 54.6 ± 3.1 µM and 47.9 ± 2.6 µM, respectively.

For `Cc1ccc(NC(=O)c2c(N3C(=O)c4ccccc4C3=O)c(C#N)c3n2CCCC3)cc1` [Compound 6l, 1-Cyano-2-(1,3-dioxoisoindolin-2-yl)-N-(p-tolyl)-5,6,7,8-tetrahydroindolizine-3-carboxamide], the IC50 in [1] amounted to 61.6 ± 3.5 µM; in experiment [8], 63.2 ± 3.5 µM; in [9], 57.5 ± 3.1 µM.

For the compound `O=C(c1ccccc1)c1ccc2n1CCC2C(=O)O` (centres unmarked) [Ketorolac], the IC50 in experiment [10] (read-out: IC50 against lung cancer cell lines A549) was ~13 µM.

In the case of `COc1ccc(NC(=O)c2c(N3C(=O)c4ccc(F)cc4C3=O)c(C#N)c3n2CCC3)cc1` [Compound 6f, 7-Cyano-6-(5-fluoro-1,3-dioxoisoindolin-2-yl)-N-(4-methoxyphenyl)-2,3-dihydro-1H-pyrrolizine-5-carboxamide], the concentration for half-maximal inhibition (IC50) in experiment [1] is 88.3 ± 4.3 µM; in experiment [8] it was > 100 µM; in [9] it was > 100 µM.

Regarding `CC/C(=C(\c1ccccc1)c1ccc(OCCN(C)C)cc1)c1ccccc1` [Tamoxifen, reference compound], the “P-gp RT-PCR fold change” value in [5] was 0.2176 fold.

Regarding `N#Cc1c(N2C(=O)c3ccc(F)cc3C2=O)c(C(=O)Nc2ccc(Br)cc2)n2c1CCC2` [Compound 6i, N-(4-Bromophenyl)-7-cyano-6-(5-fluoro-1,3-dioxoisoindolin-2-yl)-2,3-dihydro-1H-pyrrolizine-5-carboxamide], the concentration for half-maximal inhibition (IC50) in experiment [1] is 20.4 ± 1.5 µM; in [8] it was 25.3 ± 2 µM; in experiment [9] it was 14.3 ± 1.1 µM.

In the case of `COc1ccc(-c2csc3c2-n2cccc2C3=O)cc1O` [MR22388], the concentration for half-maximal inhibition (IC50) in experiment [11] is 0.015 µM.

Consider `N#Cc1c(N2C(=O)c3ccccc3C2=O)c(C(=O)Nc2ccccc2)n2c1CCCC2` [Compound 6j, 1-Cyano-2-(1,3-dioxoisoindolin-2-yl)-N-phenyl-5,6,7,8-tetrahydroindolizine-3-carboxamide], for which the IC50 in experiment [1] turned out to be 34.1 ± 1.9 µM; in experiment [8], 31.3 ± 2.3 µM; in experiment [9] it was 22.1 ± 1.6 µM.

Take `CC1(C)Cc2c(-c3ccccc3)c(-c3ccc(Cl)cc3)c(CC(=O)O)n2C1` [licofelone]: the IC50 in experiment [12] was 5.5 µM.

As to `N#Cc1c(N2C(=O)c3ccccc3C2=O)c(C(=O)Nc2ccc(F)cc2)n2c1CCCC2` [Compound 6n, 1-Cyano-2-(1,3-dioxoisoindolin-2-yl)-N-(4-fluorophenyl)-5,6,7,8-tetrahydroindolizine-3-carboxamide], the IC50 is 65.4 ± 3.7 µM in [1], 75.8 ± 3.9 µM in experiment [8] and 71.3 ± 3.5 µM in experiment [9].
